One series has as its system TAOK. The settings on record: literature; cited from earlier work.
Series [1] has as its target T1, MST1 (Homo sapiens (Human), UniProt Q13043). Kind of series: In vitro enzyme activity test (ADP-GLO). It counts as biochemical. Conditions: ATP 50 μM, 37° C. 1 hour, read-out: MST1 (IC50/μM). As for the experimental part:
The IC50 values of the compounds against MST1 were determined. The protein kinase MST1 and the substrate were obtained from commercial sources.
5.4 μL of protein kinase MST1 diluted to a certain concentration (final concentration was 2.5 ng/μL) and 1 μL of serially diluted drug compounds and control compound XMU-MP-1 were taken to react at room temperature for 10 minutes (final drug concentrations were 10 μM, 1 μM, 0.3 μM, 0.1 μM, 0.03 μM, 0.01 μM, 0.003 μM, 0.001 μM, respectively).
6 μL of a mixture of ATP (with a final reaction concentration of 50 μM) and substrate was added to the above reaction tube to react at 37° C. for 1 hour. The reaction buffer was 40 mM Tris, 7.5; 20 mM MgCl2; 0.1 mg/ml BSA; 50 μM DTT.
5 μL of the kinase mixture after the reaction was taken to a 384-well plate, and 5 μL of ADP-GLO™ reagent was added thereto. After reaction at room temperature for 40 minutes, the kinase reaction was terminated and the remaining ATP was consumed.
10 μL of a kinase detection reagent was added to convert ADP into ATP, and a coupled luciferase/luciferin reaction was utilized to detect the newly synthesized ATP. Envision was used to read and plot the data, and calculate the IC50 value.
Background: ADP-Glo first removes unused ATP, then detects ADP through luciferase.

The target of series [2] is T1, MST1. Conditions: literature; read-out: IC50 against MST1; cited from earlier work.
A further series has as its system C57BL/6 mice. Kind of series: Liver injury repair experiment (paracetamol/APAP-induced). Type of series: in vivo. How it is done:
C57BL/6 mice, male, 20 g, were maintained in a SPF animal room. Thirty C57BL/6 mice were fasted for 12 hours overnight, and 5 mice of which were intraperitoneally injected with normal saline to act as a normal control group, and the other 25 mice were intraperitoneally injected with paracetamol (APAP) (purchased from Sigma)-600 mg/kg, and randomly divided into 5 groups after 30 minutes, wherein the 5 groups include vehicle (5% DMSO in water), compound 1-1-po, compound 1-2-po, compound 1-4-po, XMU-MP-1-ip groups. Mice in the vehicle group were administered intragastrically with vehicle control; mice in the compound 1-1-po, compound 1-2-po, compound 1-4-po groups were administered intragastrically with compound 1 at 1 mg/kg, 2 mg/kg or 4 mg/kg, respectively; mice in the XMU-MP-1-ip group were intraperitoneally administered with the control compound XMU-MP-1 at 1 mg/kg. After the administration, the body weight of the mice was monitored and the survival status of the mice was observed.

The target of the next series is PIK3CG (Homo sapiens (Human), UniProt P48736). The settings on record: literature; cited from earlier work.
The next series addresses MAP3K2 (Homo sapiens (Human), UniProt Q9Y2U5). Conditions: literature; cited from earlier work.
Another series concerns the target MST2 (Homo sapiens (Human), UniProt Q13188). The settings on record: read-out: IC50 against MST2; literature; cited from earlier work.
A further series has as its system MIN-6 cells. Kind of series: Proliferation of MIN-6 cells (cell counter). Conditions: 1 μM, 72 hours. As for the experimental part: The effects of compound 1 and the control compound XMU-MP-1 on MST1 signaling pathway such as autophosphorylation of MST1, apoptosis signaling pathway such as cleavage of four proteins Caspase9/7/3 and PARP, expression of BIM, BAX, BCL-2, BCL-XL protein, proliferation-related signaling pathway such as autophosphorylation of AKT and ERK, and phosphorylation and protein expression of insulin secretion transcription factor PDX1 were tested in mouse pancreatic β-cells, MIN-6 cells (Hunan Fenghuishengwu technology Co., Ltd.). Compound 1 of different concentrations (0 μM, 0.3 μM, 1 μM, 3 μM in DMSO) and XMU-MP-1 of 1 μM (in DMSO) were used to treat the cell line for 72 hours in a medium with a glucose content of 33.3 mM, respectively. One of the control DMSO group involved 5.5 mM glucose and the other one involved 33.3 mM glucose. The samples were collected.
JIMBIO cell counter (EXCEL HERO TECHNOLOGY LIMITED) was used to detect the effect on the proliferation of MIN-6 cells after 72 hours of the administration.

The next series has as its target AURKA (Homo sapiens (Human), UniProt O14965). The settings on record: literature; cited from earlier work.

Like-named read-outs stand apart in the source and are kept apart here.

T1 sequence (Q13043 whole entry): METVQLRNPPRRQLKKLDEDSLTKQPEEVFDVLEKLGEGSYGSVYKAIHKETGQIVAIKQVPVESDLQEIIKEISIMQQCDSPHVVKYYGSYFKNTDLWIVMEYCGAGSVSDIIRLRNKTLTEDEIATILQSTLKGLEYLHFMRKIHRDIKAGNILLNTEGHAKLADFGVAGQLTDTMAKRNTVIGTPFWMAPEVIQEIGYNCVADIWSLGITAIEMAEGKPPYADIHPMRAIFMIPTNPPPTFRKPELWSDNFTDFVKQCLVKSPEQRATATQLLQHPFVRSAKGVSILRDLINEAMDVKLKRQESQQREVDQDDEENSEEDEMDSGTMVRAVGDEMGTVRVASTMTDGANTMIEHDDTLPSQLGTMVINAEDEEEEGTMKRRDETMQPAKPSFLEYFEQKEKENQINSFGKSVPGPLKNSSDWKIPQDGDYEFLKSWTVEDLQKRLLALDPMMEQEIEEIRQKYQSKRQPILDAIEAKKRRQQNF
Chain of AURKA (O14965 whole entry, species assumed): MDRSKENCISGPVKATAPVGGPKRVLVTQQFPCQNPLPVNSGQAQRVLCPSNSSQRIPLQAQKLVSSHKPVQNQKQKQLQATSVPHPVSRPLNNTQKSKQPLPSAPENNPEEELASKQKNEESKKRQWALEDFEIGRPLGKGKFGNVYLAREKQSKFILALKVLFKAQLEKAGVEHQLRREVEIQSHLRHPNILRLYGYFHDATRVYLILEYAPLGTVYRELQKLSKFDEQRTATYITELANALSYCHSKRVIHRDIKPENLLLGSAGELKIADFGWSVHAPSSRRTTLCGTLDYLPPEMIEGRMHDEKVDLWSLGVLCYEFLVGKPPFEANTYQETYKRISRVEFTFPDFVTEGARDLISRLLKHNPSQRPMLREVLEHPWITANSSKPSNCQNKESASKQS
Chain of MAP3K2 (Q9Y2U5 whole entry, species assumed): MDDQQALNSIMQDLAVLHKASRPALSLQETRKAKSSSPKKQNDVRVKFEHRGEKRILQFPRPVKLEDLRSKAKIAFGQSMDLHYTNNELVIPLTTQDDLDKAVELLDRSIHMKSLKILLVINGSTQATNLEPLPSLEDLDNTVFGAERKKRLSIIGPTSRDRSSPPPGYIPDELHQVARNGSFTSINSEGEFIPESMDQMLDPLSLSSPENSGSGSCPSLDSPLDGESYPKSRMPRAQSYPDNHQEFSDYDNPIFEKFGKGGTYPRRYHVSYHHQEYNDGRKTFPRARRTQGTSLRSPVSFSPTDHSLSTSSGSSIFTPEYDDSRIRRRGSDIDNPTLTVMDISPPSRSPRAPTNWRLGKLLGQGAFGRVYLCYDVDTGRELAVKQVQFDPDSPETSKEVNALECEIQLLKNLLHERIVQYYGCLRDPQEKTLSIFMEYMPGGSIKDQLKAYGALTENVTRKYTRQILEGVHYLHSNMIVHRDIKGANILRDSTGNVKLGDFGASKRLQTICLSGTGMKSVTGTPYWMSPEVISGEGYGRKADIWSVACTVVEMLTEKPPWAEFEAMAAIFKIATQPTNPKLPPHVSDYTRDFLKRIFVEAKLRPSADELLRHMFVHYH
Chain of MST2 (Q13188 whole entry, species assumed): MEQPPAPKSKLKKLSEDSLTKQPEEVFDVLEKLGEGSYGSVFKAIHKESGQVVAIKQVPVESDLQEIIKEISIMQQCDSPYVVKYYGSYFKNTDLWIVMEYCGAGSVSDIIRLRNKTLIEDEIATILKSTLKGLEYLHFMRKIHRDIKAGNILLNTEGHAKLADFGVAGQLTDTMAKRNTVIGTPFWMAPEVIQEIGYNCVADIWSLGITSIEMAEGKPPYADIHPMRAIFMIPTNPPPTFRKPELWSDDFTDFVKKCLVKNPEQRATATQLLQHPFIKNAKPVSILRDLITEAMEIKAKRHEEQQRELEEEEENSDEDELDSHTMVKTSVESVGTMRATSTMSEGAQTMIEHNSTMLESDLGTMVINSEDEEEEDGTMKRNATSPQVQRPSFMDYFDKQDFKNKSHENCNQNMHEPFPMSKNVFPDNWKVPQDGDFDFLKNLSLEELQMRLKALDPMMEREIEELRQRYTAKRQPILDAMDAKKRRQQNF
Chain of PIK3CG (P48736 whole entry, species assumed): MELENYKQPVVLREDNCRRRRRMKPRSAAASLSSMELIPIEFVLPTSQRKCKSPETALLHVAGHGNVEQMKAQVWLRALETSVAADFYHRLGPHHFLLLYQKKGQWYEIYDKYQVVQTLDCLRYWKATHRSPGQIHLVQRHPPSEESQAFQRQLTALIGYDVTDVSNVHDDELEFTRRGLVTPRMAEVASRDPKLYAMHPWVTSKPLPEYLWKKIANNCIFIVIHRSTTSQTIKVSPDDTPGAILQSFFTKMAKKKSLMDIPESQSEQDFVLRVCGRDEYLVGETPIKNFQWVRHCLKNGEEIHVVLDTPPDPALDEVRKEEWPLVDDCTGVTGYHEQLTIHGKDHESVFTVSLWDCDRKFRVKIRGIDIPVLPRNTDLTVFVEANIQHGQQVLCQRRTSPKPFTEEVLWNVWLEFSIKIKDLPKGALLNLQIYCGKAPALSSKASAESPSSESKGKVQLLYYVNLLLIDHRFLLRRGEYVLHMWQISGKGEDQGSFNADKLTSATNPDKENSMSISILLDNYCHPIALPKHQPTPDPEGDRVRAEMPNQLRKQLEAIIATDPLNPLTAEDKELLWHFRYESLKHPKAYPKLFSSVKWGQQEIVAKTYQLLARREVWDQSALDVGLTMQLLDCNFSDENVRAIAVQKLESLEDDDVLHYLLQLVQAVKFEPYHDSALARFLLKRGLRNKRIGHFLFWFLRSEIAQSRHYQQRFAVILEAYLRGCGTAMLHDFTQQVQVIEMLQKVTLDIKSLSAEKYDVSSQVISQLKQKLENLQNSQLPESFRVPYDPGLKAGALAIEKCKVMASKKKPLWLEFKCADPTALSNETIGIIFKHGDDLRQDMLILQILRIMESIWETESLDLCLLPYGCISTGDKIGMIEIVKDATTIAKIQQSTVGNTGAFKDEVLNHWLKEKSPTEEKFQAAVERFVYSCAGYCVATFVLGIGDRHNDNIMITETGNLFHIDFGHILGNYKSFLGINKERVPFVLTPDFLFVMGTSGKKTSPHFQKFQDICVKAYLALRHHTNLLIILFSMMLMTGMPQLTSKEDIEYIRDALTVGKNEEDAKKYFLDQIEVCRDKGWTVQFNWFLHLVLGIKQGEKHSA

With `CN1C(=O)c2sccc2N(C)c2nc(Nc3ccc(S(N)(=O)=O)cc3)ncc21` [XMU-MP-1], the “inhibitory effect on TAOK” value in the series with TAOK was “significant inhibitory effect”. Further, the figures for the IC50 on MST1 [1], at MST1 [2] and at MST2 were 0.121 µM, 71 nM and 38 nM, respectively. The “survival of the mice” value with C57BL/6 mice (1 mg/kg intraperitoneally after APAP 600 mg/kg ip) is reported as “all escaped from death”. The weight of mice result in the series with C57BL/6 mice (after APAP 600 mg/kg ip, compound 1 po 1-4 mg/kg, XMU-MP-1 ip 1 mg/kg) was “can gradually recover”. For the same compound, the “inhibition of PIK3CG” value on PIK3CG is reported as “inhibited”. In addition, on MAP3K2, the “inhibitory effect on MAP3K2” value is “significant inhibitory effect”. The number of cells entry in the series on MIN-6 cells is listed as “reduced to a certain extent”. The “toxicity to MIN6 cells” value in the series with MIN-6 cells was “toxic to MIN6 cells to a certain extent”. Also, the “inhibition of AURKA” value at AURKA is recorded as “inhibited”.

Source of the values: US12318398B2, “MST1 kinase inhibitor and use thereof” (priority 2018, dated 2025).
